For four molecules, inhibition and melting point results are on record in patent US6353001B1, “2-nitromethylidene/2-cyanimino/2-nitro-imino-pyrrolidines and piperidines, intermediates, and their use as pesticides” (Syngenta Investment Corporation, priority 1993, dated 2002).

One data set relates to Aphis craccivora. Description: Action against Aphis craccivora (sprayed pea seedlings). Format: in vivo. The settings on record: 400 ppm spray on infested pea seedlings, 20° C., evaluation 3 to 7 days later, read-out: percentage reduction in the population (% activity). Here is the method:
Action against Aphis craccivora Pea seedlings are infested with Aphis craccivora, then sprayed with a spray mixture comprising 400 ppm of test compound and then incubated at 20° C. Evaluation is made 3 to 7 days later. The percentage reduction in the population (% activity) is determined by comparing the number of dead Aphis craccivora individuals on the treated plants with that on untreated plants.

The next data set concerns Heliothis virescens. The data set is described as follows: Action against Heliothis virescens (sprayed soybean plants). Type of data set: in vivo. The settings on record: 144 h, 400 ppm spray on young soybean plants, 10 caterpillars in the first stage, evaluation 6 days later, read-out: percentage reduction in the population and percentage reduction in feeding damage (% activity). Here is the method: Action against Heliothis virescens Young soybean plants are sprayed with an aqueous emulsion comprising 400 ppm of test compound. After the spray coating has dried, the plants are populated with 10 Heliothis virescens caterpillars in the first stage and placed in a plastics container. Evaluation is made 6 days later. The percentage reduction in the population and the percentage reduction in feeding damage (% activity) are determined by comparing the number of dead caterpillars and the feeding damage on the treated plants with that on untreated plants.

In a further data set the test system is Ctenocephalides felis. The data set is described as follows: Systemic action against Ctenocephalides felis (membrane blood feeding). Format: in vivo. The settings on record: 50 ppm in blood, 37°, 20 adult fleas, evaluation 24 and 48 hours, read-out: percentage reduction in the population (% activity). As for the experimental part: Systemic action against Ctenocephalides felis 20 adult fleas of the Ctenocephalides felis species are placed in a flat round cage closed on both sides with gauze. A vessel sealed on the underside with a parafilm membrane is placed on the cage. The vessel contains blood comprising 50 ppm of test compound and maintained at a constant 37°. The fleas ingest the blood through the membrane. Evaluation is made 24 and 48 hours after the start of the test. The percentage reduction in the population (% activity) is determined by comparing the number of dead Ctenocephalides felis fleas when treated blood is used with that when untreated blood is used. The blood is replaced by fresh treated blood 24 hours after treatment.

In another data set the test system is Nilaparvata lugens. Description: Action against Nilaparvata lugens (sprayed rice plants). Type of data set: in vivo. The settings on record: 504 h, 400 ppm spray on rice plants, larvae in the 2nd and 3rd stages, evaluation 21 days later, read-out: percentage reduction in the population (% activity). Here is the method: Action against Nilaparvata lugens Rice plants are sprayed with an aqueous emulsion comprising 400 ppm of test compound. After the spray coating has dried, the rice plants are populated with Nilaparvata lugens larvae in the 2nd and 3rd stages. Evaluation is made 21 days later. The percentage reduction in the population (% activity) is determined by comparing the number of surviving plant hoppers on the treated plants with that on untreated plants.

The subject of another data set is Plutella xylostella. The data set is described as follows: Action against Plutella xylostella caterpillars. Format: in vivo. As to conditions: 72 h, 400 ppm spray on young cabbage plants, 10 caterpillars in the third stage, evaluation 3 days later, read-out: percentage reduction in the population and percentage reduction in feeding damage (% activity). Here is the method: Action against Plutella xylostella caterpillars Young cabbage plants are sprayed with an aqueous emulsion comprising 400 ppm of test compound. After the spray coating has dried, the cabbage plants are populated with 10 Plutella xylostella caterpillars in the third stage and placed in a plastics container. Evaluation is made 3 days later. The percentage reduction in the population and the percentage reduction in feeding damage (% activity) are determined by comparing the number of dead caterpillars and the feeding damage on the treated plants with that on untreated plants.

The subject of data set [1] is Myzus persicae. Description: Systemic action against Myzus persicae (roots in spray mixture). As to conditions: systemic: pea seedling roots in 400 ppm spray mixture, 20° C., evaluation 3 to 7 days later, read-out: percentage reduction in the population (% activity). Type of data set: in vivo. As for the experimental part:
Systemic action against Myzus persicae Pea seedlings are infested with Myzus persicae, then placed with their roots in a spray mixture comprising 400 ppm of test compound and then incubated at 20° C. Evaluation is made 3 to 7 days later. The percentage reduction in the population (% activity) is determined by comparing the number of dead aphids on the treated plants with that on untreated plants.

Data set [2] deals with Myzus persicae. Description: Action against Myzus persicae (sprayed pea seedlings). Format: in vivo. The settings on record: 400 ppm spray on infested pea seedlings, 20°, evaluation 3 to 7 days later, read-out: percentage reduction in the population (% activity). As for the experimental part: Action against Myzus persicae Pea seedlings are infested with Myzus persicae, then sprayed with a spray mixture comprising 400 ppm of test compound and then incubated at 20°. Evaluation is made 3 to 7 days later. The percentage reduction in the population (% activity) is determined by comparing the number of dead aphids on the treated plants with that on untreated plants.

Another data set deals with Anthonomus grandis. The data set is described as follows: Action against Anthonomus grandis (sprayed cotton plants). Type of data set: in vivo. The settings on record: 72 h, 400 ppm spray on young cotton plants, 10 adults, evaluation 3 days later, read-out: percentage reduction in the population and percentage reduction in feeding damage (% activity). As for the experimental part: Action against Anthonomus […] Young cotton plants are sprayed with an aqueous emulsion comprising 400 ppm of test compound. After the spray coating has dried, the plants are populated with 10 Anthonomus grandis adults and placed in a plastics container. Evaluation is made 3 days later. The percentage reduction in the population and the percentage reduction in feeding damage (% activity) are determined by comparing the number of dead beetles and the feeding damage on the treated plants with that on untreated plants.

The test system of a further data set is Nephotettix cincticeps. Description: Action against Nephotettix cincticeps (sprayed rice plants). Type of data set: in vivo. As to conditions: 504 h, 400 ppm spray on rice plants, larvae in the 2nd and 3rd stages, evaluation 21 days later, read-out: percentage reduction in the population (% activity). As for the experimental part: Action against Nephotettix cincticeps Rice plants are sprayed with an aqueous emulsion comprising 400 ppm of test compound. After the spray coating has dried, the plants are populated with Nephotettix cincticeps larvae in the 2nd and 3rd stages. Evaluation is made 21 days later. The percentage reduction in the population (% activity) is determined by comparing the number of surviving leaf hoppers on the treated plants with that on untreated plants.

A further data set has as its system Diabrotica balteata. Description: Action against Diabrotica balteata (sprayed maize seedlings). As to conditions: 144 h, 400 ppm spray on maize seedlings, 10 larvae in the second stage, evaluation 6 days later, read-out: percentage reduction in the population (% activity). Format: in vivo. As for the experimental part:
Action against Diabrotica balteata Maize seedlings are sprayed with an aqueous emulsion comprising 400 ppm of test compound. After the spray coating has dried, the seedlings are populated with 10 Diabrotica balteata larvae in the second stage and placed in a plastics container. Evaluation is made 6 days later. The percentage reduction in the population (% activity) is determined by comparing the number of dead larvae on the treated plants with that on untreated plants.

The structures appear in SMILES notation. Bounds are passed on as bounds.

One may read the melting point as the temperature, or range, at which the solid turns liquid. The molecule `O=[N+]([O-])/C=C1\NCCC1Cc1ccc(Cl)nc1` (stereo not shown) [Compound 5.3, 3-(2-Chloropyrid-5-yl-methyl)2-nitromethylidene-pyrrolidine] registered a melting point of 159 to 161 °C. The inhibition at 400 ppm with Aphis craccivora was over 80%. For the same molecule, in the data set on Heliothis virescens, the inhibition at 400 ppm was over 80%. Further, in the data set with Ctenocephalides felis, the inhibition at 50 ppm was over 80%. Also, the inhibition at 400 ppm with Nilaparvata lugens was over 80%. Besides, the inhibition at 400 ppm in the data set with Plutella xylostella is over 80%. For the same molecule, in the data set with Myzus persicae [1], the inhibition at 400 ppm was over 80%. Also, the inhibition at 400 ppm in the data set with Myzus persicae [2] was over 80%. Besides, the inhibition at 400 ppm in the data set on Anthonomus grandis was over 80%. Also, in the data set with Nephotettix cincticeps, the inhibition at 400 ppm was over 80%.
With `CN1CCC(Cc2ccc(Cl)nc2)/C1=C/[N+](=O)[O-]` (stereo not shown) [Compound 5.4, 3-(2-Chloropyrid-5-yl-methyl)-1methyl-2-nitromethylidene-pyrrolidine], the inhibition at 400 ppm in the data set on Nilaparvata lugens, in the data set on Myzus persicae [1], in the data set with Myzus persicae [2], in the data set on Anthonomus grandis and with Nephotettix cincticeps was over 80% in each case.
For the molecule `CCN1CCC(Cc2ccc(Cl)nc2)/C1=C/[N+](=O)[O-]` (stereo not shown) [Compound 5.5, 3-(2-Chloropyrid-5-yl-methyl)-1-ethyl-2-nitromethylidene-pyrrolidine], the inhibition at 400 ppm in the data set with Nephotettix cincticeps was over 80%.
Consider `O=[N+]([O-])C=C1NCCCC1Cc1ccc(Cl)nc1` (stereo not shown) [Compound 5.16, 3-(2-chloropyrid-5-yl-methyl)-2-nitromethylidene-piperidine], for which the melting point fell in the range of 179 to 181 °C. For the same molecule, in the data set with Diabrotica balteata, the inhibition at 400 ppm was over 80%. Besides, the inhibition at 400 ppm with Myzus persicae [2] was over 80%.
